Experimental data reported in patent US8480995B2, “Use of sodium selenosulfate for supplementing selenium and enhancing the therapeutic efficacy of chemotherapy agents, and a rapid process for preparing sodium selenosulfate” (University of Science and Technology of China, priority 2007, dated 2013).

Assays:
[1] = Se-supplementing effect in Se-deficient mice: Se level in serum, liver and kidney; assay type: in vivo; details: mean±SD; for Serum Se: relative to control 1.00 (control 0.07 μg/mL serum); for Liver Se: relative to control 1.00 (control 0.15 μg/g liver); for Kidney Se: relative to control 1.00 (control 0.44 μg/g kidney)
Description: (§1) It has been reported that high doses of sodium selenite can reduce the symptom of severely ill patient and enhance the therapeutic efficacy of chemotherapy agents for cancers. It remains unknown whether there are differences regarding the Se-supplementing effect between sodium selenosulfate and sodium selenite at pharmacologic doses. In this example, Se-deficient mice were intraperitoneally injected with sodium selenite and sodium selenosulfate at doses of 0.5 and 1 mg Se/kg for a week. The enzyme activity and selenium were measured to compare the Se-supplementing effect between the two selenium compounds.
(§2) Animals: Se-deficient male Kunming mice (body weight: 20-23 g) were purchased from the animal center of Anhui Medical University. Drugs Administration: 35 mice were randomly divided into 5 groups with 7 mice in each group. The mice in the control group were injected with normal saline, and those in other groups were injected respectively with different doses of sodium selenite and sodium selenosulfate (0.5 and 1 mg Se/kg) for 7 consecutive days. Biochemical parameters: 24 hours after the last Se administration, blood was sampled from ophthalmic veins to obtain serum by centrifugation, and then the Se form and glutathione peroxidase (GPx) activity therein were determined. Meanwhile, liver and kidney were excised and stored at −30° C., and a part of them were used to determine Se. A part of livers and kidneys were homogenized and centrifuged to obtain supernatant, and then GPx activity and glutathione S-transferase (GST) activity in livers were determined. Statistical analysis: Data were expressed as mean±SD. The differences between the groups were examined using ANOVA. A p value less than 0.05 was considered statistically significant.

[2] = system: Se-sufficient male Kunming mice; assay: Toxicity to normal tissues in Se-sufficient mice, i.p. once daily for 14 days; assay type: in vivo; details: for mortality: FIG. 3; for hepatic tissue slices with hydropic or fatty degeneration / serum ALT and AST activity (hepatotoxicity): 2 mg Se/kg, 14 days; for hepatic tissue slices with hydropic or fatty degeneration: HE stain, selenite moderate (FIG. 5), selenosulfate slight (FIG. 6); for serum ALT and AST activity (hepatotoxicity): FIG. 4; for suppression of the growth of the mice (body weight): 2 and 3 mg Se/kg, same Se levels compared, FIG. 2
Description: Animals: Se-sufficient male Kunming mice (body weight: 23±1 g) were purchased from the Shanghai Laboratory Animal Center, Chinese Academy of Sciences. Drugs Administration: 50 mice were randomly divided into 5 groups with 10 mice in each group. The mice in the control group were injected intraperitoneally with normal saline, and the other groups were injected with sodium selenite (2 groups) and sodium selenosulfate (2 groups) respectively at 2 and 3 mg Se/kg once daily for 14 consecutive days. The mice in low dosage groups were sacrificed 24 hours after the last Se administration. Animal status: The body weight and dead status of the mice were recorded every day. Biochemical parameters: Blood was sampled from ophthalmic veins for determining serum ALT activity and AST activity. Pathology: Liver was excised for the determination. The slice was dyed by using HE. Statistical analysis: Data were expressed as mean±SD. The differences between the groups were examined using ANOVA. A p value less than 0.05 was considered statistically significant.

[3] = system: Human hepatoma cells (HepG2); assay: Cell killing assay (MTT, 72 hours); assay type: cell-based; details: FIG. 7A
Description: (§3) Cell culture: Human hepatoma cells (HepG2) and human colorectal cancer cells (CaCo2) were cultivated at 37° C. under 5% CO2 by using EMEM cell culture media containing 10% Fetal Bovine serum. Cell killing assay: the tumor cells were added into a 96-well plate with a density of 5000 cells/well for 24 hours, and then the culture media were changed to those with different Se concentrations. At 72 hours, the cell numbers were determined by MTT protocol. Each treatment was conducted in 3 parallels, and the data were expressed by percent relative to cell numbers when no Se was added. Cell proliferation assay: HepG2 or CaCo2 cells were added into a 96-well plate with a density of 1000 cells/well for 24 hours, and then the culture media were changed to those with 12.5 μM Se. The day was defined as day 0. The cell numbers were determined by MTT protocol on day 0, 2, 4 and 6, respectively. Each treatment was conducted with 8 parallels, and the data were expressed with percent relative to the cell numbers on day 0. MTT assay: Each well was added with 20 μL MTT (5 mg/mL) 4 hours prior to the end of culture. After the culture was ended, the supernatant was discarded, and the formazan particles were dissolved in HCl-isopropanol (10 μL/well). The readings were recorded at 595 nm on a microplate reader.

[4] = system: glutathione peroxidase (GPx); assay: Se-supplementing effect in Se-deficient mice: GPx activity in serum, liver and kidney; assay type: in vivo; details: mean±SD; for Liver GPx: relative to control 1.00 (control 88.5 unit/mg protein); for Kidney GPx: relative to control 1.00 (control 142.8 unit/mg protein); for Serum GPx: relative to control 1.00 (control 525.5 unit/mL serum)
Description: as §1, §2

[5] = system: Human hepatoma cells (HepG2); assay: Cell proliferation assay (MTT, day 0-6); assay type: cell-based; details: 12.5 μM Se, day 0-6, MTT; FIG. 7B
Description: as §3

[6] = system: glutathione S-transferase (GST); assay: Se-supplementing effect in Se-deficient mice: GST activity in liver; assay type: in vivo; details: relative to control 1.00 (control 4071.4 unit/mg protein), mean±SD
Description: as §1, §2

hepatoma H22 cell = assay: Treatment of mice bearing H22 ascites with cisplatin with or without sodium selenosulfate; assay type: in vivo; details: for Survival time of dead mice: mean±SD
Description: Animals: Se-sufficient male Kunming mice (body weight: 20-23 g) were purchased from Shanghai Laboratory Animal Center, Chinese Academy of Sciences. Drugs Administration: 48 mice were divided randomly into 6 groups with 8 mice in each group. Each mouse was inoculated intraperitoneally with hepatoma H22 cell suspension (20×10^6 cells). The groups were classified into 3 cisplatin groups, 2 cisplatin plus Se-supplementing groups (the groups administrated with 8 and 10 mg/kg doses of cisplatin were treated with 0.6 and 0.75 mg Se/kg doses of sodium selenosulfate, respectively) and 1 control group in terms of the administration doses (5, 8 and 10 mg/kg) of cisplatin. The experiments were carried out with one week as a cycle. The experiments with cisplatin doses of 5 and 8 mg/kg were carried out for total 4 cycles, and those with cisplatin dose of 10 mg/kg were performed for total 3 cycles. From the first day of each cycle, the mice in cisplatin groups was intraperitoneally injected with the corresponding concentrations of cisplatin, and the mice in cisplatin plus Se-supplementing groups were injected intraperitoneally with the corresponding sodium selenosulfate doses of 0.6 and 0.75 mg Se/kg respectively 4 hours before the intraperitoneal injection of cisplatin. The treatment was performed for 5 consecutive days. The first cisplatin chemotherapy started at 48 hours after the inoculation of tumor cells. The animal status was recorded and the development of malignant ascites was observed. Statistical analysis: Data were expressed as mean±SD. The differences between the groups were examined using ANOVA. A p value less than 0.05 was considered statistically significant.

[7] = 2 mg Se/kg i.p. once daily 14 days
[8] = 3 mg Se/kg i.p. once daily 14 days
[9] = cisplatin 5 mg/kg i.p., 4 cycles
[10] = cisplatin 8 mg/kg i.p., 4 cycles
[11] = cisplatin 10 mg/kg i.p., 3 cycles

Row | SMILES | mortality [2, 7] | hepatic tissue slices with hydropic or fatty degeneration [2] | serum ALT and AST activity (hepatotoxicity) [2] | mortality [2, 8] | suppression of the growth of the mice (body weight) [2] | Liver GPx ([4]; 0.5 mg/kg i.p. 7 days) | Kidney GPx ([4]; 0.5 mg/kg i.p. 7 days) | Serum GPx ([4]; 0.5 mg/kg i.p. 7 days) | Liver GPx ([4]; 1.0 mg/kg i.p. 7 days) | Kidney GPx ([4]; 1.0 mg/kg i.p. 7 days) | Serum GPx ([4]; 1.0 mg/kg i.p. 7 days) | Liver GST ([6]; 0.5 mg/kg i.p. 7 days) | Liver GST ([6]; 1.0 mg/kg i.p. 7 days) | further results
1 | O=S(=O)([O-])[Se-].[Na+].[Na+] [Sodium selenosulfate, sodium selenosulfate] | all the mice treated with sodium selenosulfate survived | 20% | such phenomenon was not found | 20% | could suppress the growth of the mice as compared with the control | 18.8 ± 0.19 | 7.74 ± 0.19 | 3.10 ± 0.25 | 22.2 ± 0.16 | 9.09 ± 0.18 | 4.41 ± 0.24 | 1.47 ± 0.29 | 2.69 ± 0.23 | Serum Se ([1]; 0.5 mg/kg i.p. 7 days): 5.69 ± 0.13; Liver Se ([1]; 0.5 mg/kg i.p. 7 days): 11.2 ± 0.09; Kidney Se ([1]; 0.5 mg/kg i.p. 7 days): 2.85 ± 0.10; Serum Se ([1]; 1.0 mg/kg i.p. 7 days): 5.24 ± 0.39; Liver Se ([1]; 1.0 mg/kg i.p. 7 days): 15.2 ± 0.09; Kidney Se ([1]; 1.0 mg/kg i.p. 7 days): 3.90 ± 0.14; killing effect on HepG2 cells [3]: dose-dependent profile on killing HepG2 cells at levels of 6-18 μM; suppression of proliferation of HepG2 cells [5]: fully suppressed the proliferation of HepG2 cells
2 | O=[Se](O)O [Sodium selenite, sodium selenite] | 20% | up to 80% | made ALT and AST increased significantly | 90% | significantly stronger than that of sodium selenosulfate | 19.8 ± 0.08 | 8.74 ± 0.14 | 2.97 ± 0.37 | 22.2 ± 0.10 | 10.2 ± 0.14 | 4.18 ± 0.26 | 1.64 ± 0.23 | 2.44 ± 0.14 | 
3 | N.N.[Cl][Pt][Cl] [Cisplatin, cisplatin] |  |  |  |  |  |  |  |  |  |  |  |  |  | suppression of the development of malignant ascites (hepatoma H22 cell; cisplatin 5 mg/kg): could not suppress the rapid development of malignant ascites; Cure rate (hepatoma H22 cell; [9]): 0%; Death rate (hepatoma H22 cell; [9]): 100%; Survival time of dead mice (hepatoma H22 cell; [9]): 20 ± 7 days; Cure rate (hepatoma H22 cell; [10]): 0%; Death rate (hepatoma H22 cell; [10]): 100%; Survival time of dead mice (hepatoma H22 cell; [10]): 31 ± 12 days; Cure rate (hepatoma H22 cell; [11]): 25%; Death rate (hepatoma H22 cell; [11]): 75%; Survival time of dead mice (hepatoma H22 cell; [11]): 21 ± 9 days; suppression of the development of malignant ascites (hepatoma H22 cell; cisplatin 8 and 10 mg/kg): could efficiently suppress the development of malignant ascites
